Reference: patent US20230190717A1, “P38 GAMMA INHIBITORS AND METHOD OF USE THEREOF” (City of Hope, priority 2017, published 2023)

How the values were obtained:
Assay type in all cases: cell-based, human
[1] = system: HS 578T; experiment: NCI-60 cytotoxicity, HS 578T; settings: HS 578T (Breast), 72 h
Experimental: (§1) Briefly, human NCI-60 cancer cell lines were counted with a Vi-CELL Cell Viability Analyzer (Beckman Coulter), resuspended in RPMI-1640 medium containing 10% FBS and 1% penicillin/streptomycin and dispensed in wells of 96-well microplates (3000 cells per well for solid tumor and 5000 per well for blood tumor cells) using an epMotion 5075 liquid handler (Eppendorf) under a sterile condition, followed by incubation overnight at 37° C. in 5% (v/v) CO2. Cells were exposed to compounds in a dose-dependent manner for 72 h. An MTS dye (20 uL per well) was added to each well. Cell viability was determined by tetrazolium conversion to its […] dye. […] Each experiment was performed in duplicate. […] H9 cells are more sensitive to drugs, therefore instead of 72 hours, we choose 48 hour the incubation time for H9 cells.
(§2) IC50 values were determined using […] software (Biosoft).

[2] = system: DU-145; experiment: NCI-60 cytotoxicity, DU-145; settings: DU-145 (Prostate), 72 h
Experimental: as §1, §2

[3] = system: SW-620; experiment: NCI-60 cytotoxicity, SW-620; settings: SW-620 (Colon), 72 h
Experimental: as §1, §2

[4] = system: NCI-H322M; experiment: NCI-60 cytotoxicity, NCI-H322M; settings: NCI-H322M (Lung), 72 h
Experimental: as §1, §2

[5] = system: PC-3; experiment: NCI-60 cytotoxicity, PC-3; settings: PC-3 (Prostate), 72 h
Experimental: as §1, §2

[6] = system: HOP-62; experiment: NCI-60 cytotoxicity, HOP-62; settings: HOP-62 (Lung), 72 h
Experimental: as §1, §2

[7] = system: RXF 393; experiment: NCI-60 cytotoxicity, RXF 393; settings: RXF 393 (Renal), 72 h
Experimental: as §1, §2

[8] = system: HL60; experiment: NCI-60 cytotoxicity, HL60; settings: HL60 (AML), 72 h
Experimental: as §1, §2

[9] = system: U251; experiment: NCI-60 cytotoxicity, U251; settings: U251 (CNS), 72 h
Experimental: as §1, §2

[10] = system: OVCAR-4; experiment: NCI-60 cytotoxicity, OVCAR-4; settings: OVCAR-4 (Ovarian), 72 h
Experimental: as §1, §2

[11] = system: CCRF-CEM; experiment: NCI-60 cytotoxicity, CCRF-CEM; settings: CCRF-CEM (Leukemia), 72 h
Experimental: as §1, §2

[12] = system: SK-MEL-2; experiment: NCI-60 cytotoxicity, SK-MEL-2; settings: SK-MEL-2 (Melanoma), 72 h
Experimental: as §1, §2

[13] = system: MDA-MB-435; experiment: NCI-60 cytotoxicity, MDA-MB-435; settings: MDA-MB-435 (Melanoma), 72 h
Experimental: as §1, §2

[14] = system: OVCAR-3; experiment: NCI-60 cytotoxicity, OVCAR-3; settings: OVCAR-3 (Ovarian), 72 h
Experimental: as §1, §2

[15] = system: HT29; experiment: NCI-60 cytotoxicity, HT29; settings: HT29 (Colon), 72 h
Experimental: as §1, §2

[16] = system: SF-268; experiment: NCI-60 cytotoxicity, SF-268; settings: SF-268 (CNS), 72 h
Experimental: as §1, §2

[17] = system: HCT-15; experiment: NCI-60 cytotoxicity, HCT-15; settings: HCT-15 (Colon), 72 h
Experimental: as §1, §2

[18] = system: TK-10; experiment: NCI-60 cytotoxicity, TK-10; settings: TK-10 (Renal), 72 h
Experimental: as §1, §2

[19] = system: UACC257; experiment: NCI-60 cytotoxicity, UACC257; settings: UACC257 (Melanoma), 72 h
Experimental: as §1, §2

[20] = system: UACC-62; experiment: NCI-60 cytotoxicity, UACC-62; settings: UACC-62 (Melanoma), 72 h
Experimental: as §1, §2

[21] = system: LOX IMVI; experiment: NCI-60 cytotoxicity, LOX IMVI; settings: LOX IMVI (Melanoma), 72 h
Experimental: as §1, §2

[22] = system: SKOV3; experiment: NCI-60 cytotoxicity, SKOV3; settings: SKOV3 (Ovarian), 72 h
Experimental: as §1, §2

[23] = system: HOP-92; experiment: NCI-60 cytotoxicity, HOP-92; settings: HOP-92 (Lung), 72 h
Experimental: as §1, §2

[24] = system: UO31; experiment: NCI-60 cytotoxicity, UO31; settings: UO31 (Renal), 72 h
Experimental: as §1, §2

[25] = system: MALME-3M; experiment: NCI-60 cytotoxicity, MALME-3M; settings: MALME-3M (Melanoma), 72 h
Experimental: as §1, §2

[26] = system: CAKI-1; experiment: NCI-60 cytotoxicity, CAKI-1; settings: CAKI-1 (Renal), 72 h
Experimental: as §1, §2

[27] = system: RPMI-8226; experiment: NCI-60 cytotoxicity, RPMI-8226; settings: RPMI-8226 (MM), 72 h
Experimental: as §1, §2

[28] = system: MDA-MB-231; experiment: NCI-60 cytotoxicity, MDA-MB-231; settings: MDA-MB-231 (Breast), 72 h
Experimental: as §1, §2

[29] = system: Colo 205; experiment: NCI-60 cytotoxicity, Colo 205; settings: Colo 205 (Colon), 72 h
Experimental: as §1, §2

[30] = system: SF-295; experiment: NCI-60 cytotoxicity, SF-295; settings: SF-295 (CNS), 72 h
Experimental: as §1, §2

[31] = system: SR; experiment: NCI-60 cytotoxicity, SR; settings: SR (Leukemia), 72 h
Experimental: as §1, §2

[32] = system: HCC-2998; experiment: NCI-60 cytotoxicity, HCC-2998; settings: HCC-2998 (Colon), 72 h
Experimental: as §1, §2

[33] = system: SNB-19; experiment: NCI-60 cytotoxicity, SNB-19; settings: SNB-19 (CNS), 72 h
Experimental: as §1, §2

## Cc1ccc([N+](=O)[O-])cc1S(=O)(=O)N(C)/N=C/c1cnc2ccc(Br)cn12 [Compound 1]
[1]; Homo sapiens
  IC50: 586 nM
[2]; Homo sapiens
  IC50: 1 nM
[3]; Homo sapiens
  IC50: 74 nM
[4]; Homo sapiens
  IC50: 1500 nM
[5]; Homo sapiens
  IC50: 20 nM
[6]; Homo sapiens
  IC50: 8 nM
[7]; Homo sapiens
  IC50: 80 nM
[8]; Homo sapiens, HL-60
  IC50: 5 nM
[9]; Homo sapiens, U-251
  IC50: 253 nM
[10]; Homo sapiens
  IC50: 403 nM
[11]; Homo sapiens
  IC50: 3720 nM
[12]; Homo sapiens
  IC50: 317 nM
[13]; Homo sapiens
  IC50: > 10000 nM
[14]; Homo sapiens
  IC50: 71 nM
[15]; Homo sapiens, HT-29
  IC50: 87 nM
[16]; Homo sapiens
  IC50: 2230 nM
[17]; Homo sapiens
  IC50: 8 nM
[18]; Homo sapiens
  IC50: 805 nM
[19]; Homo sapiens, UACC-257
  IC50: 2320 nM
[20]; Homo sapiens
  IC50: 362 nM
[21]; Homo sapiens
  IC50: 73 nM
[22]; Homo sapiens, SK-OV-3
  IC50: 291 nM
[23]; Homo sapiens
  IC50: 94 nM
[24]; Homo sapiens, UO-31
  IC50: 115 nM
[25]; Homo sapiens
  IC50: 116 nM
[26]; Homo sapiens
  IC50: 350 nM
[27]; Homo sapiens
  IC50: 77 nM
[28]; Homo sapiens
  IC50: 466 nM
[29]; Homo sapiens
  IC50: 2180 nM
[30]; Homo sapiens
  IC50: 141 nM
[31]; Homo sapiens
  IC50: < 1 nM
[32]; Homo sapiens
  IC50: > 10000 nM
[33]; Homo sapiens
  IC50: 385 nM

## O=C1NCCc2[nH]c(-c3ccncc3)cc21 [Compound A11]
[1]
  IC50: > 10000 nM
[2]
  IC50: 2260 nM
[3]
  IC50: 3930 nM
[4]
  IC50: > 10000 nM
[5]
  IC50: 9180 nM
[6]
  IC50: 9940 nM
[7]
  IC50: 3470 nM
[8]
  IC50: 247 nM
[9]
  IC50: 4570 nM
[10]
  IC50: > 10000 nM
[11]
  IC50: 2500 nM
[12]
  IC50: > 10000 nM
[13]
  IC50: > 10000 nM
[14]
  IC50: 2520 nM
[15]
  IC50: 5040 nM
[16]
  IC50: > 10000 nM
[17]
  IC50: 2540 nM
[18]
  IC50: > 10000 nM
[19]
  IC50: > 10000 nM
[20]
  IC50: 6120 nM
[21]
  IC50: 3580 nM
[22]
  IC50: > 10000 nM
[23]
  IC50: 6400 nM
[24]
  IC50: 4030 nM
[25]
  IC50: 3050 nM
[26]
  IC50: > 10000 nM
[27]
  IC50: > 10000 nM
[28]
  IC50: > 10000 nM
[29]
  IC50: > 10000 nM
[30]
  IC50: 7640 nM
[31]
  IC50: 286 nM
[32]
  IC50: > 10000 nM
[33]
  IC50: > 10000 nM

## O=C1NC(=NCc2cccs2)S/C1=C\c1ccc2ncccc2c1 [Compound A10]
[1]
  IC50: 5830 nM
[2]
  IC50: 1380 nM
[3]
  IC50: > 10000 nM
[4]
  IC50: > 10000 nM
[5]
  IC50: > 10000 nM
[6]
  IC50: > 10000 nM
[7]
  IC50: > 10000 nM
[8]
  IC50: 1140 nM
[9]
  IC50: 1920 nM
[10]
  IC50: > 10000 nM
[11]
  IC50: 2500 nM
[12]
  IC50: > 10000 nM
[13]
  IC50: 6600 nM
[14]
  IC50: > 10000 nM
[15]
  IC50: > 10000 nM
[16]
  IC50: > 10000 nM
[17]
  IC50: 3840 nM
[18]
  IC50: > 10000 nM
[19]
  IC50: > 10000 nM
[20]
  IC50: > 10000 nM
[21]
  IC50: 4400 nM
[22]
  IC50: > 10000 nM
[23]
  IC50: 6040 nM
[24]
  IC50: > 10000 nM
[25]
  IC50: > 10000 nM
[26]
  IC50: > 10000 nM
[27]
  IC50: 9000 nM
[28]
  IC50: > 10000 nM
[29]
  IC50: > 10000 nM
[30]
  IC50: > 10000 nM
[31]
  IC50: 372 nM
[32]
  IC50: > 10000 nM
[33]
  IC50: > 10000 nM
